For series [1], the system named is human activated platelets. As to the kind of experiment: Binding of compounds to human activated platelets (Gd by ICP-MS in pellet and supernatant). Type of series: cell-based. The method, then: For each experiment fresh blood was taken from a volunteer using 10 mL citrate-tubes (Sarstedt S-Monovette 02.1067.001, 10 mL, Citrate 3.13%). The 10 mL citrate-tubes were carefully inverted 10 times to mix blood and anticoagulant. The tubes were stored in an incubator at a temperature of 37° C. until centrifugation (Heraeus miniTherm CTT with integrated rotation- and turning device, turning speed: 19 rotations per minute, Heraeus Instruments GmbH, Hanau/Germany).
For plasma preparation tube centrifugation was carried out for 15 minutes at 1811 g at room temperature (Eppendorf, Centrifuge 5810R). To produce platelet-rich plasma blood was centrifuged 15 minutes at 201 g at room temperature. The tubes were stood for 30 min at room temperature to get a better separation. The separated platelet-rich plasma was finally centrifuged for further 3 min at 453 g to remove the remaining erythrocytes. The platelet-rich plasma was activated using a final concentration of 5 μM Adenosindiphosphate (ADP, Sigma). The activated platelet-rich plasma was incubated 20 minutes […] with different concentrations of gadolinium-labeled compound and subsequently was centrifuged 3 minutes at 1360 g. 20 μL of supernatant was taken to determine the concentration (n=3). The pellet was resuspended and washed two times with at least 750 μL plasma and subsequently was redispered in 750 μL plasma and 50 μL calciumchloride (50 μL 2%).

The test system of series [2] is in vitro platelet-rich thrombi. As to the kind of experiment: Magnetic resonance imaging of in vitro platelet-rich thrombi. Type of series: cell-based, human. Conditions: 20 min incubation, washed three times, 1.5 T 3D TSE. The method, then: Magnetic resonance imaging of in vitro platelet-rich thrombi and incubation solution (example 1) using a 3D turbo spin echo sequence (1.5 T, Siemens Avanto, small extremity coil, TR 1050 ms, TE 9.1 ms, 0.5×0.5×0.6 mm^3). In FIG. 2a an in vitro control thrombus without the addition of a contrast agent is shown. The signal intensity of the control thrombus is slightly higher than the surrounding medium but clearly lower than the signal of the in vitro thrombus which was incubated with Example 1 as depicted in FIG. 2b. In FIG. 2c the incubation solution with a final concentration of 10 μmol substance/L of example 1 in human plasma is represented. The signal intensity is higher than the surrounding plasma solutions in the in vitro platelet-rich thrombi 2a and 2b.
The in vitro thrombus in FIG. 2b is incubated with the solution which is depicted in FIG. 2c. After 20 min incubation period the thrombi was washed three times with plasma solution.
Magnetic resonance imaging of in vitro platelet-rich thrombi and incubation solution (Example 1) using a 3D turbo spin echo sequence (1.5 T, Siemens Avanto, small extremity coil, TR 1050 ms, TE 9.1 ms, 0.5×0.5×0.6 mm^3). In FIG. 3a an in vitro control thrombus without the addition of a contrast agent is shown. […]

Series [3] deals with thrombus. The settings on record: 40 min after last injection; for Gadolinium concentration: 4 repeated doses of 1 μM Gadolinium/kg bw i.v.; for thrombus/blood ratio: total dose 4 μM Gadolinium/kg bw. The method, then: The specific binding of the compound described in Example 1 was investigated in cynomolgus monkey (female 3.0 kg bodyweight).
The monkey was anesthetized with a mixture of Xylazin (Rompun®, Bayer HealthCare, Leverkusen, Germany), 0.12 mL/Kg and Ketamine (Ketavet®, Pfizer) 0.12 mL/Kg b.w. i.m. While the investigation, small amounts of Xylazin/Ketamine (1+1) have been injected i.m. if required. The left common carotid artery was exposed 10 min with iron-III-chloride solution (10%). Following thrombus induction the monkey received 1 μmol Gadolinium/kg bodyweight (equals 0.125 μmol molecule/kg bodyweight) i.v. Afterwards, the right carotid artery was exposed 8 min with iron-III-chloride solution (10%) and the monkey received a repeated dose of 1 μmol Gadolinium/kg bodyweight iv.
After the first two contrast media applications the right carotid artery was exposed surgically and a polyethylene-tube ([…] Polyethylene Tubing, Clay Adams, PE50), which was roughened previously by sandpaper (600—CAMI Grit designation), was inserted into the vessel, advanced into the descending aorta and was left there for 30 minutes to allow for the development of a thrombus on the rough surface of the tube. The monkey received 1 μmol Gadolinium/kg bodyweight (equals 0.125 μmol molecule/kg bodyweight) i.v. 30 min and 90 min post catheterization. 40 min after the last contrast media application the animal was sacrificed using Pentobarbital (Narcoren). The gadolinium concentrations in blood, thombus of the left and right carotis, right carotis, left carotis, jugular vein and aorta were determined using an inductively coupled plasma mass spectrometry (ICP-MS Agilent 7500a).

The target in series [4] is human GPIIb/IIIa receptor (Homo sapiens, UniProt P05106+P08514). As to the kind of experiment: biochemical.
Method: Affinity assay: In the first step human GPIIb/IIIa purified from human platelets was immobilized on a 96-well solid plate. After 48 hours the plates were washed and the unspecific binding sites were blocked with Roti®-Block. […] In the next step, the plates were simultaneously incubated with a tritium labeled known GPIIb/IIIa binder (^3H) mixed with increasing concentrations of the novel compounds (inhibitor). […] The fraction of tritiated compound (^3H), which is not displaced by inhibitor, was measured in a microplate scintillation counter. […]
The maximum value of tritiated reference compound was determined without addition of inhibitor (n=8). […]
After one hour the plate was washed three times with phosphate-buffered saline (200 μL per well, Dulbecco's Phosphate Buffered Saline (D-PBS (+)), GIBCO®, Invitrogen). […] After 15 min at room temperature the plates were measured at the microplate scintillation counter (TopCount NXT v2.13, Perkin Elmer, Packard Instrument Company).
In the first step human glycoprotein IIb/IIIa, which is purified from human platelets, was immobilized on a 96-well solid plate. […] The fraction of tritiated reference compound, which is not displaced by inhibitor, was measured at a microplate scintillation counter. […] By means of this assay the affinities (1050 values) could be determined.
[5] abbreviates: incubation concentration 1 μM molecule, incubation time 3 min.
The mark [6] stands for this setting: incubation concentration 1 μM molecule, incubation time 20 min.
[7] abbreviates: incubation concentration 10 μM molecule, incubation time 20 min.

Like-named read-outs stand apart in the source and are kept apart here.

Sequence of human GPIIb/IIIa receptor (P08514 32-887 limits assumed): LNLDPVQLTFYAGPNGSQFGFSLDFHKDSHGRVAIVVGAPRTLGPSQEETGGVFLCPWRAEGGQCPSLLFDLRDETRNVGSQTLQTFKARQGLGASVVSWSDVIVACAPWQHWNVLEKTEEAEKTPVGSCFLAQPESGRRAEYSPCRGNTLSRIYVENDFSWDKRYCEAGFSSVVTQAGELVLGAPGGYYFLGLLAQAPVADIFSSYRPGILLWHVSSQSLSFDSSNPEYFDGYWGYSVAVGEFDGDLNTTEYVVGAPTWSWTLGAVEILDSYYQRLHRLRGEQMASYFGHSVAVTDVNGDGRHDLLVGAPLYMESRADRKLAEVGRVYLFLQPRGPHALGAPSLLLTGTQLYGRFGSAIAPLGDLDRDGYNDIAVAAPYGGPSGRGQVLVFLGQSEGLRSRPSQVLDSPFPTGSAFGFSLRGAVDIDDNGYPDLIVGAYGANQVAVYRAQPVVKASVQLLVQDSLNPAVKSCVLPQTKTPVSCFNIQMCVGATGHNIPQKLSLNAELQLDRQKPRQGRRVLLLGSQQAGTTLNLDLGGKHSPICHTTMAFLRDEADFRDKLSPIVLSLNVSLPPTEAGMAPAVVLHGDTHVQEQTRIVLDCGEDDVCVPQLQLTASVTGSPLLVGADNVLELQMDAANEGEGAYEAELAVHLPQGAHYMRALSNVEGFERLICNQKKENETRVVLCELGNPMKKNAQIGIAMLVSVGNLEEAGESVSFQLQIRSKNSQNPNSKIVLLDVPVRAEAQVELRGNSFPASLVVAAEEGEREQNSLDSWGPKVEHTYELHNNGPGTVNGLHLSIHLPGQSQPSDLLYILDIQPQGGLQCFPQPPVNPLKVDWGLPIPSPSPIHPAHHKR
Sequence of human GPIIb/IIIa receptor (P05106 27-788): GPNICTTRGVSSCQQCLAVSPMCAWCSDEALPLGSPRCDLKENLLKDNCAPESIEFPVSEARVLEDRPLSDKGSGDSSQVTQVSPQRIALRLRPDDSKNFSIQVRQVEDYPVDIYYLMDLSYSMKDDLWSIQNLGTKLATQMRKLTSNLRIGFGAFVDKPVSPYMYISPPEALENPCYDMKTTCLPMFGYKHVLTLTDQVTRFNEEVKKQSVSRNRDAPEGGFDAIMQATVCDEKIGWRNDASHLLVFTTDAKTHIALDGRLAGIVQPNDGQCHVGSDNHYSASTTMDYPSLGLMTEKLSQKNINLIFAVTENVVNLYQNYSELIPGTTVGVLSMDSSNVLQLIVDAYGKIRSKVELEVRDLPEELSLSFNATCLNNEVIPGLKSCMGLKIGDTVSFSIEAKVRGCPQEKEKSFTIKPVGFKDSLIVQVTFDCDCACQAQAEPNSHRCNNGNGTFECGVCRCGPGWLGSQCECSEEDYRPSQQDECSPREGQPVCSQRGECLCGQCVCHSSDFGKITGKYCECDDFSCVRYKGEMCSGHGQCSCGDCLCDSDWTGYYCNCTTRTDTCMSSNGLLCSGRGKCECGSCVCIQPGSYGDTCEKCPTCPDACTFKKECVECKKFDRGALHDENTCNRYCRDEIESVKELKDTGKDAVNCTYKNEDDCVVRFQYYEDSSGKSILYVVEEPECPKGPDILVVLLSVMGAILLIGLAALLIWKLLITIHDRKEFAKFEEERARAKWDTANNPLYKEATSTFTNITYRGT

Broadly, the IC50 is the concentration at which inhibition is half-maximal. Read a high IC50 as a need for much substance. As to `CC(C(=O)NCC(=O)NCC(NC(=O)CNC(=O)C(C)N1CCN(CC(=O)O)CCN(CC(=O)O)CCN(CC(=O)O)CC1)C(=O)NCC(NC(=O)C(CNC(=O)CNC(=O)C(C)N1CCN(CC(=O)O)CCN(CC(=O)O)CCN(CC(=O)O)CC1)NC(=O)CNC(=O)C(C)N1CCN(CC(=O)O)CCN(CC(=O)O)CCN(CC(=O)O)CC1)C(=O)NCC(NC(=O)C(CNC(=O)C(CNC(=O)CNC(=O)C(C)N1CCN(CC(=O)O)CCN(CC(=O)O)CCN(CC(=O)O)CC1)NC(=O)CNC(=O)C(C)N1CCN(CC(=O)O)CCN(CC(=O)O)CCN(CC(=O)O)CC1)NC(=O)C(CNC(=O)CNC(=O)C(C)N1CCN(CC(=O)O)CCN(CC(=O)O)CCN(CC(=O)O)CC1)NC(=O)CNC(=O)C(C)N1CCN(CC(=O)O)CCN(CC(=O)O)CCN(CC(=O)O)CC1)C(=O)NCCCCc1cccc(C#Cc2cncc([C@H](CC(=O)O)NC(=O)[C@@H]3CCCN(C(=O)CCC4CCNCC4)C3)c2)c1)N1CCN(CC(=O)O)CCN(CC(=O)O)CCN(CC(=O)O)CC1` (stereo partly drawn) [Example 1, Octagadolinium 2,3-bis-{[2,3-bis({2,3-bis[(N-{2-[4,7,10-tris(carboxylatomethyl)-1,4,7,10-tetraazacyclododecan-1-yl]propanoyl}glycyl)amino]propanoyl}amino)propanoyl]amino}-N-(4-{3-[(5-{(1S)-2-carboxy-1-[({(3R)-1-[3-(piperidin-4-yl)propanoyl]piperidin-3-yl}carbonyl)amino]ethyl}pyridin-3-yl)ethynyl]phenyl}butyl)propanamide], the “Concentration within platelet pellet” value came out at 28.2 ± 1.8 μM Gd in series [1] (incubation concentration 0.1 μM molecule, incubation time 20 min); 32.7 ± 7.8 μM Gd in series [1] (setting [5]); 28.8 ± 2.2 μM Gd in series [1] (setting [6]); 35.9 ± 1.6 μM Gd in series [1] (setting [7]). Also, the figures for the pellet/supernatant in series [1] (setting [5]), in series [1] (setting [6]) and in series [1] (setting [7]) were 131 ± 36, 108 ± 18 and 81 ± 5, respectively. For the same compound, the “MRI signal intensity of incubated in vitro thrombus versus control thrombus” value in series [2] (0.1 μmol substance/L (0.8 μmol Gd/L) in human plasma) and in series [2] (10 μmol substance/L in human plasma) was “clearly higher signal than the control thrombi” throughout. Also, the Gadolinium concentration is listed as 3.3 ± 0.7 (n = 5) μM Gd in series [3] (blood); 9.4 ± 0.4 (n = 4) μM Gd in series [3] (left carotis); 4.3 ± 0.7 (n = 4) μM Gd in series [3] (right carotis); 4.0 μM Gd in series [3] (right jugular vein); 29.3 μM Gd in series [3] (thrombus left carotis); 41.0 μM Gd in series [3] (thrombus right carotis). Besides, the figures for the thrombus/blood ratio in series [3] (thrombus left carotis) and in series [3] (thrombus right carotis) were 8.9 and 12.4, respectively. This compound yielded an IC50 in series [4] of 40 nM.

Source of the values: patent US20170008876A1, “Metal Chelate Compounds for Binding to the Platelet Specific Glycoprotein IIb/IIIa” (BAYER PHARMA AKTIENGESELLSCHAFT, priority 2014, published 2017).
